Patent publication US7727530B2, “Anti-cancer composition comprising proline or its derivatives and an anti-tumour antibody” (priority 2004, dated 2010)

Assays:
Assay type in all cases: cell-based
[1] = tested on: Colo205 colon cancer cells; test: MTT proliferation (chemosensitivity) assay, Colo205
DLD1 colon cancer cells = test: MTT proliferation (chemosensitivity) assay, DLD1; conditions: high concentrations of Cetuximab
Method: (§1) MTT proliferation tests were performed as described. The proliferation control of both the untreated cells and the CHP pre-treated cells is set to 100%.
(§2) Unless otherwise indicated, all cell lines were obtained from the American Type Culture Collection (ATCC, Rockville, Md.) and grown to confluent monolayers in RPMI-1640 bicarbonate medium (Seromed, Berlin, Germany) in a humidified incubator (5% CO2, 37° C.). Cells were checked for mycoplasma contamination. The medium was supplemented with 10% heat-inactivated foetal bovine serum (Seromed) and 4 mM glutamine. The cells were subcultured by trypsination (0.03% trypsin containing 0.02% EDTA, three times a week). Cells numbers were counted using a TOA Sysmex microcellcounter (TOA, Tokyo, Japan).
(§3) 10^4 cells/well were distributed into 96-well microtitre plates (100 μl medium) and the compounds to be tested were added in another 100 μl volume. All compounds were diluted in triplicate or in most cases in quadruplicate. Plates were incubated under tissue culture conditions for 4 days, except those for tests investigating the relationship between application time and response, and cell viability was measured using a modified MTT assay (formazane dye formation from tetrazolium salts by mitochondrial reduction; EZ4U, Biomedica, Vienna, Austria), assessing mitochondrial activity and thereby cell viability/cell numbers. […]

[2] = tested on: colo250 colon cancer cell lines; test: CHP with analytical EGFR-antibody, inhibition of proliferation; conditions: read-out: Inhibition of the control in %
Method: as §1, §2, §3

SW620 colon cancer cells = test: MTT proliferation (chemosensitivity) assay, SW620
Method: as §1, §2
(§4) 10^4 cells/well were distributed into 96-well microtitre plates (100 μl medium) and the compounds to be tested were added in another 100 μl volume. All compounds were diluted in triplicate or in most cases in quadruplicate. Plates were incubated under tissue culture conditions for 4 days, except those for tests investigating the relationship between application time and response, and cell viability was measured using a modified MTT assay (formazane dye formation from tetrazolium salts by mitochondrial reduction; EZ4U, Biomedica, Vienna, Austria), assessing mitochondrial activity and thereby cell viability/cell numbers. In brief, the supplied substrate was diluted in an activator solution and 20 μl of the mixture added per well for 2 hrs. The optical density was measured at 450 nm using an empty well as reference in a microplate reader (Eurogenetics, Brussels, Belgium). For each cell line, 8 wells were used to measure the MTT signal of the medium control without test substances and the proliferation in the test wells was calculated in relation to these control values set to 100%.
SW620chp4 and A431chp4 cells represent cells pre-treated with 400 μg/ml CHP for 5 days under tissue culture conditions.

EGFR = EGFR expression of A431 cells after CHP pre-incubation; conditions: A431 cells pre-incubated with CHP
HT29 colon cancer cells = test: MTT proliferation (chemosensitivity) assay, HT29; conditions: high concentrations of Cetuximab
Method: as §1, §2, §3

[3] = tested on: A431 epidermoid carcinoma; test: MTT proliferation (chemosensitivity) assay, A431; conditions: A431 EGFR-overexpressing cell line
Method: as §1, §2, §3

WI38 normal fibroblasts = test: MTT proliferation (chemosensitivity) assay, WI38; conditions: W138
Method: as §1, §2, §3

[4] = tested on: MIAPaCa2 pancreatic cancer cell line; test: MTT proliferation (chemosensitivity) assay, MIAPaCa2
Method: as §1, §2
as §4, with “100%. Test results were recorded between 0.3 and 1.5 optical densities for slowly and rapidly proliferating cells respectively.” for “100%.”
Experiments using pre-incubation with CHP were performed using more cell lines, namely BxPC3 and MIAPaCa2 pancreatic cancer cell lines. […]

[5] = Homo sapiens, SW-620, read-out: proliferation activity (% of control)
[6] = Homo sapiens, read-out: proliferation activity (% of control)
[7] = Homo sapiens, COLO 205, read-out: proliferation activity (% of control)

Structure (SMILES): CCOC(=O)[C@@H]1CC(O)CN1C (stereo partly shown) [A1.21, 4-hydroxy-1-methyl-proline ethyl ester]
- proliferation activity (% of control) ([1]; Colo 205 cells pre-incubated with the derivative 50 μg/ml for 5 days, then Cetuximab, Cetuximab concentrations not given): 94.5 ± 1.7%

Structure (SMILES): O=C(O)[C@@H]1C[C@H](O)CN1 [CHP, Cis-4-hydroxy-L-proline]
- interaction with Cetuximab, sequential combination (CHP pre-treatment) (DLD1 colon cancer cells): antagonistic effects
- inhibition at 200 µg/mL ([2]; CHP 200 μg/ml alone): 7.3 ± 8.1%
- inhibition at 100 µg/mL ([2]; CHP100, CHP 100 μg/ml alone): 2.9 ± 10.1%
- activity at 12.5 µg/mL (SW620 colon cancer cells; [5]): 98.7 ± 3%
- activity at 25 µg/mL (SW620 colon cancer cells; [5]): 92.3 ± 0.9%
- activity at 50 µg/mL (SW620 colon cancer cells; [5]): 91.9 ± 4.1%
- activity at 200 µg/mL (SW620 colon cancer cells; [5]): 69.9 ± 2.6%
- activity at 400 µg/mL (SW620 colon cancer cells; [5]): 51.3 ± 3.7%
- activity at 100 µg/mL (SW620 colon cancer cells; [6]): 85.2 ± 0.7%
- interaction with Cetuximab, direct combination (SW620 colon cancer cells; SW620 cells, low concentrations of CHP (6.3-50 μg/ml), Cetuximab 40 μg/ml): antagonistic
- expression of EGFR (EGFR): reduced expression of EGFR
- interaction with Cetuximab, sequential combination (CHP pre-treatment) (HT29 colon cancer cells): antagonistic effects
- interaction of CHP pre-incubation with Cetuximab [3]: antagonistic interaction
- interaction with Cetuximab, sequential combination (CHP pre-treatment) (WI38 normal fibroblasts): antagonistic effects
- interaction CHP-Cetuximab, pre-incubation with CHP 200 μg/ml [4]: antagonistic interaction
- interaction with Rituximab, CHP pre-treatment ([4]; 400 μg/ml CHP for 5 days): synergy
- interaction Avastatin-CHP pre-incubation ([4]; high concentrations of Avastatin): Slightly synergistic effects
- interaction with Cetuximab, direct combination ([1]; C205, CHP 400 μg/ml, at 5 and […] (printed as concentrations of CHP)): antagonistic
- interaction with Cetuximab, direct combination ([1]; C205, CHP 400 μg/ml, other concentrations): no significant interaction
- interaction Avastatin-CHP pre-incubation ([1]; Colo205, high concentrations of Avastatin): Slightly synergistic effects
- interaction with Cetuximab, direct combination ([1]; Colo205 cells, higher concentrations of CHP (50, 200 and 400 μg/ml), Cetuximab 40 μg/ml): antagonistic
- activity at 12.5 µg/mL [1, 7]: 92.2 ± 1.4%
- activity at 25 µg/mL [1, 7]: 94.4 ± 6.2%
- activity at 50 µg/mL [1, 7]: 84.2 ± 2.1%
- activity at 200 µg/mL [1, 7]: 15.7 ± 1%
- activity at 400 µg/mL [1, 7]: 9.9 ± 0.4%
- activity at 100 µg/mL [1, 6]: 45.5 ± 3.2%
